# Measured values: ChEMBL document CHEMBL1134745, “Synthesis and evaluation of novel pseudomycin side-chain analogues. Part 3” (2001)
# Positions of bridges follow the written chain, without caps; N, C: chain ends. Non-standard residues stand in square brackets, D forms with d. Residues, ends and D or L forms follow the SMILES beside them. *: point of attachment. Tetradecanoyl(3R-OH) = CCCCCCCCCCC[C@@H](O)CC(=O)*; Asp(3S-OH) = N[C@H](C(=O)O)[C@H](O)C(=O)O; Thr(4-Cl) = N[C@H](C(=O)O)[C@H](O)CCl; aThr = C[C@H](O)[C@H](N)C(=O)O; dDab = NCC[C@@H](N)C(=O)O; Dab = NCC[C@H](N)C(=O)O; Dhb = C/C=C(\N)C(=O)O
# Legend:
# Cryptococcus neoformans = assay: Lowest concentration required to inhibit 90-100% in vitro growth of Cryptococcus neoformans
# Aspergillus fumigatus = assay: Lowest concentration required to inhibit 90-100% in vitro growth of Aspergillus fumigatus; assay type: functional
# Candida albicans = assay: Lowest concentration required to inhibit 90-100% in vitro growth of Candida albicans; assay type: functional
# Mus musculus [1] = species on record: Mus musculus; assay: Ratio of the drug concentration required to achieve 50% survival of fungal infection compared with untreated animals to that of ED50 of PSB; assay type: functional
# Mus musculus [2] = assay: Tail vein toxicity at 20 mg/kg dose was determined in mice;Positive; assay type: functional, organism-based; parameters: dose 20 mg/kg
# Mus musculus [3] = species on record: Mus musculus; assay: Ratio of the drug concentration required to achieve 50% survival of fungal infection compared with untreated animals to that of ED50 of PSB;value in range of 2-7; assay type: functional
Compound,MIC (Cryptococcus neoformans) [µg/mL],MIC (Aspergillus fumigatus) [µg/mL],MIC (Candida albicans) [µg/mL],Ratio (Mus musculus [1]),Toxicity (Mus musculus [2]),Ratio (Mus musculus [3])
C/C=C1\NC(=O)[C@H]([C@@H](C)O)NC(=O)[C@H](CCNC(=O)OCc2oc(=O)oc2C)NC(=O)[C@H](CCCCNC(=O)OCc2oc(=O)oc2C)NC(=O)[C@H](CC(=O)O)NC(=O)[C@@H](CCNC(=O)OCc2oc(=O)oc2C)NC(=O)[C@@H](NC(=O)C[C@@H](O)CCCCCCCCCCCCCCC)COC(=O)[C@H]([C@H](O)CCl)NC(=O)[C@H]([C@H](O)C(=O)O)NC1=O,> 20,> 20,> 20,>19,–,–
C/C=C1/NC(=O)[C@H]([C@@H](C)O)NC(=O)[C@H](CCNC(=O)OCOC(=O)C(C)(C)C)NC(=O)[C@H](CCCCNC(=O)OCOC(=O)C(C)(C)C)NC(=O)[C@H](CC(=O)O)NC(=O)[C@@H](CCNC(=O)OCOC(=O)C(C)(C)C)NC(=O)[C@@H](NC(=O)C[C@@H](O)CCCCCCCCCCCCCCC)COC(=O)[C@H]([C@H](O)CCl)NC(=O)[C@H]([C@H](O)C(=O)O)NC1=O,> 20,> 20,> 20,>20,–,–
C/C=C1\NC(=O)[C@H]([C@@H](C)O)NC(=O)[C@H](CCNC(=O)OCOC(=O)C(C)C)NC(=O)[C@H](CCCCNC(=O)OCOC(=O)C(C)C)NC(=O)[C@H](CC(=O)O)NC(=O)[C@@H](CCNC(=O)OCOC(=O)C(C)C)NC(=O)[C@@H](NC(=O)C[C@@H](O)CCCCCCCCCCC)COC(=O)[C@H]([C@H](O)CCl)NC(=O)[C@H]([C@H](O)C(=O)O)NC1=O,> 20,> 20,> 20,11.4,–,–
C/C=C1\NC(=O)[C@H]([C@@H](C)O)NC(=O)[C@H](CCNC(=O)OCOC(=O)C(C)C)NC(=O)[C@H](CCCCNC(=O)OCOC(=O)C(C)C)NC(=O)[C@H](CC(=O)O)NC(=O)[C@@H](CCNC(=O)OCOC(=O)C(C)C)NC(=O)[C@@H](NC(=O)C[C@@H](O)CCCCCCCCCCCCCCC)COC(=O)[C@H]([C@H](O)CCl)NC(=O)[C@H]([C@H](O)C(=O)O)NC1=O,> 20,> 20,> 20,>14,–,–
C/C=C1\NC(=O)[C@H]([C@@H](C)O)NC(=O)[C@H](CCNC(=O)OCOC(=O)C(C)(C)C)NC(=O)[C@H](CCCCNC(=O)OCOC(=O)C(C)(C)C)NC(=O)[C@H](CC(=O)O)NC(=O)[C@@H](CCNC(=O)OCOC(=O)C(C)(C)C)NC(=O)[C@@H](NC(=O)C[C@@H](O)CCCCCCCCCCC)COC(=O)[C@H]([C@H](O)CCl)NC(=O)[C@H]([C@H](O)C(=O)O)NC1=O,> 20,> 20,> 20,6.4,–,–
C/C=C1\NC(=O)[C@H]([C@@H](C)O)NC(=O)[C@H](CCN)NC(=O)[C@H](CCCCN)NC(=O)[C@H](CC(=O)OC)NC(=O)[C@@H](CCN)NC(=O)[C@@H](NC(=O)C[C@@H](O)CCCCCCCCCCC)COC(=O)[C@H]([C@H](O)CCl)NC(=O)[C@H]([C@H](O)C(=O)OC)NC1=O,0.01,20,2.5,7.8,–,–
C/C=C1\NC(=O)[C@H]([C@@H](C)O)NC(=O)[C@H](CCN)NC(=O)[C@H](CCCCN)NC(=O)[C@H](CC(=O)NCCN(C)C)NC(=O)[C@@H](CCN)NC(=O)[C@@H](NC(=O)C[C@@H](O)CCCCCCCCCCC)COC(=O)[C@H]([C@H](O)CCl)NC(=O)[C@H]([C@H](O)C(=O)O)NC1=O,< 0.01,5,0.156,<5,–,–
C/C=C1\NC(=O)[C@H]([C@@H](C)O)NC(=O)[C@H](CCNC(=O)OCc2oc(=O)oc2C)NC(=O)[C@H](CCCCNC(=O)OCc2oc(=O)oc2C)NC(=O)[C@H](CC(=O)O)NC(=O)[C@@H](CCNC(=O)OCc2oc(=O)oc2C)NC(=O)[C@@H](NC(=O)C[C@@H](O)CCCCCCCCCCC)COC(=O)[C@H]([C@H](O)CCl)NC(=O)[C@H]([C@H](O)C(=O)O)NC1=O,> 20,> 20,> 20,7.8,–,–
C/C=C1\NC(=O)[C@H]([C@@H](C)O)NC(=O)[C@H](CCN)NC(=O)[C@H](CCCCN)NC(=O)[C@H](CC(=O)O)NC(=O)[C@@H](CCN)NC(=O)[C@@H](NC(=O)C[C@H](O)CCCCCCCCCCCCCCC)COC(=O)[C@H]([C@H](O)CCl)NC(=O)[C@H]([C@H](O)C(=O)O)NC1=O,0.02,5,1.25,>20,–,–
C/C=C1\NC(=O)[C@H]([C@@H](C)O)NC(=O)[C@H](CCN)NC(=O)[C@H](CCCCN)NC(=O)[C@H](CC(=O)NC2CC2)NC(=O)[C@@H](CCN)NC(=O)[C@@H](NC(=O)C[C@@H](O)CCCCCCCCCCC)COC(=O)[C@H]([C@H](O)CCl)NC(=O)[C@H]([C@H](O)C(=O)O)NC1=O,< 0.01,> 20,0.156,<5,–,–
C/C=C1\NC(=O)[C@H]([C@H](C)O)NC(=O)[C@H](CCN)NC(=O)[C@H](CCCCN)NC(=O)[C@H](CC(=O)O)NC(=O)[C@@H](CCN)NC(=O)[C@@H](NC(=O)C[C@H](O)CCCCCCCCCCC)COC(=O)[C@H]([C@H](O)CCl)NC(=O)[C@H]([C@H](O)C(=O)O)NC1=O [PSEUDOMYCIN B] ({Tetradecanoyl(3R-OH)}-S[dDab]DK[Dab][aThr][Dhb][Asp(3S-OH)][Thr(4-Cl)]; ester 1-C),0.039,20,0.625,–,Positive,7
C/C=C1\NC(=O)[C@H]([C@H](C)O)NC(=O)[C@H](CCN)NC(=O)[C@H](CCCCN)NC(=O)[C@H](CC(=O)O)NC(=O)[C@@H](CCN)NC(=O)[C@@H](NC(=O)C[C@H](O)CCCCCCCCCCCCCCC)COC(=O)[C@H]([C@H](O)CCl)NC(=O)[C@H]([C@H](O)C(=O)O)NC1=O,0.01,5,0.625,>20,Positive,–
C/C=C1\NC(=O)[C@H]([C@@H](C)O)NC(=O)[C@H](CCN)NC(=O)[C@H](CCCCN)NC(=O)[C@H](CC(=O)OC)NC(=O)[C@@H](CCN)NC(=O)[C@@H](NC(=O)C[C@@H](O)CCCCCCCCCCCCCCC)COC(=O)[C@H]([C@H](O)CCl)NC(=O)[C@H]([C@H](O)C(=O)OC)NC1=O,1.25,20,5,>20,–,–
